Data published in US20100210559A1, “TRAP-14 AS A THERAPEUTIC AGENT” (priority 2007, published 2010).
No end group written: not given here.

Tested on: drug-resistant Mycobacterium tuberculosis
Settings: drug-resistant Mycobacterium tuberculosis (PAS, streptomycin, INH); peptide 10 micrograms per ml; seven days

SFLLRNPNDKYEPF-OH [TRAP-14]
% inhibition: 0.0%
